Data: publication PMC10657973 (Journal of Pharmaceutical Analysis, 2023)
Entries after “also recorded” stand apart in the source; their conditions may differ.

Tests used:
serum protein = assay: Protein-binding ratio of UTs in rat serum; type: in vitro ADME, rats; conditions: ultrafiltration at 37 °C
HSA = conditions: 4% HSA, about 100 μM UT, 37 °C, 2 h; cited from earlier work
rOAT1/3 = assay: rOAT1/3−/− rat experiment; type: in vivo, rats; conditions: for renal elimination in rOAT1/3−/− rats: Fig. S7F
OAT1 [1] = biological target: T1, OAT1 (Homo sapiens, UniProt Q4U2R8); assay: Uptake of UTs in HEK293T-OAT1 cells; type: cell-based; conditions: 100 μM, 30 min; for uptake of free UT in OAT1-overexpressing cells vs control cells: without HSA
T1 sequence (Q4U2R8 1-563): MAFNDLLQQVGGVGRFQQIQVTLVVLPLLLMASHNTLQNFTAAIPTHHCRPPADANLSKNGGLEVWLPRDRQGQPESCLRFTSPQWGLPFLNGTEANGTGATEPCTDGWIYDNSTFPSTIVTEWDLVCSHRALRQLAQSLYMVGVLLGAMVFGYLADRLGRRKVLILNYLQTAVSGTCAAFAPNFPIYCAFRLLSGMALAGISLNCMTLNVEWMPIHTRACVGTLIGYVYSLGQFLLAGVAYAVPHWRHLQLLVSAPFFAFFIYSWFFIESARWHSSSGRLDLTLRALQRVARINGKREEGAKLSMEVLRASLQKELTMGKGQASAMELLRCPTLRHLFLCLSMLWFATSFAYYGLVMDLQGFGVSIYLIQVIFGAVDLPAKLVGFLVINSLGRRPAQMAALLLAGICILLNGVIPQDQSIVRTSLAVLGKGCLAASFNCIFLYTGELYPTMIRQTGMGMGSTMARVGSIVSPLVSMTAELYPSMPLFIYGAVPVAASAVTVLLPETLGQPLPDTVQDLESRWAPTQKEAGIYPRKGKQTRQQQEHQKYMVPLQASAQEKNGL

rOATs = rOATs inhibition experiment
OAT3 = biological target: T2, OAT3 (Homo sapiens, UniProt Q8TCC7); assay: Uptake of UTs in HEK293T-OAT3 cells; type: cell-based; conditions: 100 μM, 30 min; for uptake of HSA-bound UT in OAT3-overexpressing cells vs control cells / uptake of free UT in OAT3-overexpressing cells vs control cells: 37 °C; for uptake of HSA-bound UT in OAT3-overexpressing cells vs control cells: with HSA; for uptake of free UT in OAT3-overexpressing cells vs control cells: without HSA
T2 sequence (Q8TCC7 1-542): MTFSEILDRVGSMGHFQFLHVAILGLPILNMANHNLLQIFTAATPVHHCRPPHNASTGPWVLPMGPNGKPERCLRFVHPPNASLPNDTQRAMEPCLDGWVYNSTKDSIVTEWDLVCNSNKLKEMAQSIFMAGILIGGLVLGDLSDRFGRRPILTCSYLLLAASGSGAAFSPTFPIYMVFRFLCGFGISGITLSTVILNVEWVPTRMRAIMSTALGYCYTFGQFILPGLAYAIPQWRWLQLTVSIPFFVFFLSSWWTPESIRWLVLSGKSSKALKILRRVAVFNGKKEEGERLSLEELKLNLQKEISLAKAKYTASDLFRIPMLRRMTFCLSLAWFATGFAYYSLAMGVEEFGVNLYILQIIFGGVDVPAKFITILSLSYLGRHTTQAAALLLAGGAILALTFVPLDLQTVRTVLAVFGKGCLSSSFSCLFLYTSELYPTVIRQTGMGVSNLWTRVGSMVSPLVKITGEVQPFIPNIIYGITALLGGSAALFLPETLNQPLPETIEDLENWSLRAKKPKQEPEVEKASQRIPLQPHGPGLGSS

[2] = type: in vivo, rats; conditions: rats
OAT4 = assay: Specificity: uptake in OAT4-overexpressing cells; type: cell-based
MRP4 = assay: Intracellular accumulation of UTs in MRP4-overexpressing cells; type: cell-based, human; conditions: 100 μM, 30 min; for intracellular accumulation in MRP4-overexpressing cells vs control cells: 37 °C, 4 mM ATP
OAT1 [3] = biological target: T1, OAT1; assay: Transport kinetics of UTs in HEK293T-OAT1 cells; type: cell-based; conditions: HEK293T-OAT1/3 cells, 100 μM
[4] = system: OAT1/3 and MRP4 double-transfected MDCK cells
rMRP4 [5] = type: in vivo, rats; conditions: rat, in vivo
rMRP4 [6] = type: in vivo, rats
[7] = system: OAT1/3-MRP4 double-transfected MDCK cells; assay: Transcellular transport in OAT1/3-MRP4 double-transfected MDCK cells; type: cell-based
[8] = Correlation between biomarkers and cefmetazole pharmacokinetics in rats; type: in vivo; conditions: for plasma concentrations in rats treated with PROB: PROB 60 and 120 mg/kg 7 days, cefmetazole 100 mg/kg i.v.
[9] = cited from earlier work
[10] = substrate: CCCc1oc(CCC(=O)O)c(C(=O)O)c1C; assay: Transport kinetics of UTs in HEK293T-OAT3 cells; type: cell-based, human; conditions: other: HEK293T-OAT3, Michaelis-Menten
[11] = substrate: O=C(O)c1cc(=O)c2ccccc2[nH]1; assay: Transport kinetics of UTs in HEK293T-OAT3 cells; type: cell-based, human; conditions: other: HEK293T-OAT3, Michaelis-Menten
[12] = substrate: CCCc1oc(CCC(=O)O)c(C(=O)O)c1C; assay: Transport kinetics of UTs in HEK293T-OAT1 cells; type: cell-based, human; conditions: other: HEK293T-OAT1, Michaelis-Menten
[13] = substrate: O=C(O)c1cc(=O)c2ccccc2[nH]1; assay: Transport kinetics of UTs in HEK293T-OAT1 cells; type: cell-based, human; conditions: other: HEK293T-OAT1, Michaelis-Menten
[14] = PROB 30, 60, 120 mg/kg oral, 7 days

O=c1[nH]cc([C@@H]2O[C@H](CO)[C@@H](O)[C@H]2O)c(=O)[nH]1 [Pseudouridine, pseudouridine]
Protein-binding ratio, Normal rats in vivo (%) (n = 6) (serum protein): less than 24% | Protein-binding ratio, HSA binding in vitro (%) (n = 3) (HSA): below 50%

CCCc1oc(CCC(=O)O)c(C(=O)O)c1C [CMPF, 3-carboxy-4-methyl-5-propyl-2-furanpropanoic acid]
renal clearance rate in rOAT1/3−/− rats vs WT (rOAT1/3; rat, in vivo): significantly decreased | renal tissue uptake ratio in rOAT1/3−/− rats vs WT (rOAT1/3; rat, in vivo): significantly decreased | serum levels in rOAT1/3−/− rats vs WT (rOAT1/3; rat, in vivo): significantly increased | uptake at 4 °C in OAT1-overexpressing cells vs control (OAT1 [1]; 4 °C): not significantly different | uptake of HSA-bound UT in OAT1-overexpressing cells vs control cells (OAT1 [1]; 37 °C, with HSA): dramatically increased | uptake of free UT in OAT1-overexpressing cells vs control cells (OAT1 [1]; 37 °C): dramatically increased; also recorded: markedly higher | cumulative urinary excretion in rats treated with PROB vs control (rOATs; 12 h urine): no significant effects | renal uptake ratios in rats treated with PROB vs control (rOATs; [14]): decreased | serum levels in rats treated with PROB vs control (rOATs; [14]): increased | uptake at 4 °C in OAT3-overexpressing cells vs control (OAT3; 4 °C): not significantly different | uptake of HSA-bound UT in OAT3-overexpressing cells vs control cells (OAT3): dramatically increased | uptake of free UT in OAT3-overexpressing cells vs control cells (OAT3): dramatically increased; also recorded: markedly higher | renal excretion with MK-571 vs control ([2]; MK-571 20 mg/kg): did not affect | renal excretion with PROB vs control ([2]; PROB 60 mg/kg): did not affect | transport mediated by OAT4 / uptake in OAT4-overexpressing cells vs control (OAT4): significantly higher | Protein-binding ratio, Normal rats in vivo (%) (n = 6) (serum protein): > 90% | uptake at 4 °C in MRP4-overexpressing cells vs control (MRP4; 4 °C): not significantly different | intracellular accumulation in MRP4-overexpressing cells vs control cells (MRP4): significantly decreased | linear uptake time (OAT1 [3]): 0 to 10 min | uptake at 4 °C in OAT1/3 and MRP4 double-transfected cells ([4]; 4 °C): no significant difference | uptake at 37 °C in OAT1-MRP4 cells vs double control cells ([4]; 37 °C): significantly increased | uptake at 37 °C in OAT3-MRP4 cells vs double control cells ([4]; 37 °C): significantly increased | renal clearance rate in rMRP4−/− rats vs WT (rMRP4 [5]): did not change significantly | renal tissue concentration in rMRP4−/− rats vs WT (rMRP4 [5]): significantly elevated | serum levels in rMRP4−/− rats vs WT (rMRP4 [5]): did not change significantly | levels in renal tissues in rats treated with MK-571 vs control (rMRP4 [6]; MK-571 5, 10, 20 mg/kg oral, 7 days): significantly increased | cumulative urinary excretion in rats treated with MK-571 vs control (rMRP4 [6]; MK-571 (CMPF effect at 20 mg/kg)): significantly decreased

CN(C)C(=O)CCSC(SCCC(=O)O)c1cccc(/C=C/c2ccc3ccc(Cl)cc3n2)c1 (centres unmarked) [MK-571, reference compound]
serum creatinine and urea nitrogen levels (rMRP4 [6]; rats, 20 mg/kg oral, 7 days): significantly increased | pathological changes in the kidneys (rMRP4 [6]; rats, different doses, H&E staining): No significant pathological changes | effect on B to A transmembrane transport of CMPF [7]: substantially inhibited | effect on B−A transport of kynurenic acid [7]: significantly reduced

O=C(O)CNC(=O)c1ccccc1 [Hippuric acid, hippuric acid]
renal elimination in rOAT1/3−/− rats (rOAT1/3): substantially inhibited | serum levels in rats treated with PROB vs control (rOATs; [14]): no significant change | uptake of HSA-bound UT in OAT3-overexpressing cells vs control cells (OAT3): dramatically increased | uptake of free UT in OAT3-overexpressing cells vs control cells (OAT3): dramatically increased | intracellular accumulation in MRP4-overexpressing cells vs control cells (MRP4): slightly decreased

O=C(O)c1cc(O)c2cccc(O)c2n1 [xanthurenic, xanthurenic acid]
uptake of free UT in OAT1-overexpressing cells vs control cells (OAT1 [1]; 37 °C): mediated by OAT1 and OAT3 | serum level in vivo (detectability by LC-MS/MS) (rOATs; rats / in vivo): below the lowest detection limit | uptake of free UT in OAT3-overexpressing cells vs control cells (OAT3): mediated by OAT1 and OAT3 | intracellular accumulation in MRP4-overexpressing cells vs control cells (MRP4): efflux by MRP4

CN(C)c1nc2c(ncn2[C@@H]2O[C@H](CO)[C@@H](O)[C@H]2O)c(=O)[nH]1 [N, N-dimethylguanosine, N,N-dimethylguanosine]
Protein-binding ratio, Normal rats in vivo (%) (n = 6) (serum protein): less than 24% | Protein-binding ratio, HSA binding in vitro (%) (n = 3) (HSA): below 50%

CN1CC(=O)NC1=N [Creatinine, creatinine]
renal elimination in rOAT1/3−/− rats (rOAT1/3): unaffected | Protein-binding ratio, Normal rats in vivo (%) (n = 6) (serum protein): less than 24% | plasma concentrations in rats treated with PROB [8]: did not change significantly | Protein-binding ratio, HSA binding in vitro (%) (n = 3) (HSA): below 50% | renal clearance rate in rMRP4−/− rats vs WT (rMRP4 [5]): not significantly altered | renal uptake ratio in rMRP4−/− rats vs WT (rMRP4 [5]): not significantly altered | serum levels in rMRP4−/− rats vs WT (rMRP4 [5]): not significantly altered

O=C(O)c1cc(=O)[nH]c(=O)[nH]1 [Orotic acid, orotic acid]
Protein-binding ratio, Normal rats in vivo (%) (n = 6) (serum protein): less than 24% | Protein-binding ratio, HSA binding in vitro (%) (n = 3) (HSA): below 50%

CO[C@@]1(NC(=O)CSCC#N)C(=O)N2C(C(=O)O)=C(CSc3nnnn3C)CS[C@@H]21 [cefmetazole, reference compound]
renal tubular secretion [9]: about 40% | plasma concentrations in rats treated with PROB [8]: increased | cmax in WT rats given 100 mg/kg vs KO rats given 60 mg/kg ([8]; i.p., 7 consecutive days): close to

B1: OAT3 (Homo sapiens) (protein)
chain: T2 sequence (Q8TCC7 1-542)
Km [10]: 447.1 µM | Vmax [10]: 133.2 pmol/mg protein/min | Km [11]: 382.2 µM

B2: OAT1 (Homo sapiens) (protein)
chain: T1 sequence (Q4U2R8 1-563)
Km [12]: 1,483 μM | Vmax [12]: 323 pmol/mg protein/min | Km [13]: 496.7 µM
